This is an account of results in PubChem BioAssay AID850 (SRMLSC, 2007).

Test [1] is described as follows: yeast lifespan-shortening chemical project counter-assay, dose-response inhibition of growth under permissive conditions (AID 850).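 Note: growth read as optical density after one day of incubation.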 The note with it: Saccharomyces cerevisiae growth inhibition, permissive control, measured here: maximum growth inhibition, stronger effect = higher value.
The subject of test [2] is Saccharomyces cerevisiae growth inhibition, permissive control. The description is as above.

Calls of active or inactive are those of the source. The rule behind the calls is not given here.

For `O=C(CC(O)(C(F)(F)F)C(F)(F)F)Nc1ccc(Cl)c(Cl)c1`, the inhibition in test [1] (at 50 µM) is 92.8%. Further, the half-maximal inhibitory concentration (IC50) in test [2] is 19.2 µM.

For `Cc1ccc2nc(-c3ccc(NS(C)(=O)=O)cc3)cc(-c3ccccc3)c2c1`, in test [1] (at 50 µM), the inhibition was determined as 22.2%. Moreover, in test [2], the IC50 was > 100 µM (inactive).

As to `CCN1CCN(c2ncnc3c2sc(=S)n3-c2ccccc2)CC1`, the inhibition in test [1] (at 0.195 µM) amounted to 15.6%. The IC50 in test [2] was > 100 µM (inactive).

Take `CCSc1ncc(/C=N/Nc2ccc(Cl)cc2)n1C`: in test [1] (at 50 µM), the inhibition worked out at 94.7%. Further, the IC50 in test [2] was 6.82 µM.

Regarding `CC1(CCc2ccccc2)NC(=S)N(c2ccccc2)N1` (stereo not drawn), the inhibition in test [1] (at 50 µM) amounted to 99.8%. In test [2], the IC50 was 9.11 µM.

With `OC(CNCCC1C=Nc2ccccc21)Cn1c2ccc(Cl)cc2c2cc(Cl)ccc21` (stereo not drawn), the inhibition in test [1] (at 50 µM) was determined as 100%. The half-maximal inhibitory concentration (IC50) in test [2] was 18.4 µM.

With `O=S(=O)(Cc1ccccc1)NCc1cccnc1`, the inhibition in test [1] (at 12.5 µM) is 28.2%. In test [2], the IC50 is > 100 µM (inactive).

In the case of `Nc1ccc(C(=O)OCC(=O)Nc2ccc3c(c2)OCO3)cc1[N+](=O)[O-]`, the inhibition in test [1] (at 0.391 µM) was 17.2%. In addition, in test [2], the IC50 was > 100 µM (inactive).

Take `Cc1cc(C)nc(/N=c2/ssnc2Cl)c1`: the inhibition in test [1] (at 6.25 µM) was found to be 29.2%. In addition, the IC50 in test [2] was > 100 µM (inactive).

As to `Cc1ccc(/C=C/C(=O)c2ccccc(=O)c2O)cc1C`, the inhibition in test [1] (at 25 µM) stood at 98.9%. The IC50 in test [2] was 4.5 µM.

`COc1ccccc1-n1c(=O)oc2ccc(Cl)cc2c1=O`: in test [1] (at 6.25 µM), the inhibition was -0.76%. For the same compound, the IC50 in test [2] is > 100 µM (inactive).

Consider `Clc1ccc(COC(Cn2ccnc2)c2ccc(Cl)cc2Cl)c(Cl)c1` (stereo not drawn), for which the inhibition in test [1] (at 50 µM) is 101%. Also, the IC50 in test [2] is less than 0.098 µM.

For `Cc1ccc(/C=C2\C(=O)Nc3ccccc32)o1`, the inhibition in test [1] (at 25 µM) came out at 26.6%. For the same compound, in test [2], the IC50 was > 100 µM (inactive).

With `Cn1cccc1Cc1nnc(SCC(=O)Nc2nccs2)n1CCc1ccccc1`, the inhibition in test [1] (at 6.25 µM) is 29%. In addition, in test [2], the IC50 was > 100 µM (inactive).

With `CCOC(=O)c1c(NC(=O)C(C)Sc2cccc[n+]2[O-])sc2c1CCN(Cc1ccccc1)C2` (stereo not drawn), the inhibition in test [1] (at 50 µM) was 98.6%. For the same compound, the half-maximal inhibitory concentration (IC50) in test [2] was 16.3 µM.

Consider `N/C(Cc1ccccc1)=N\OC(=O)c1cccc2ccccc12`, for which the inhibition in test [1] (at 50 µM) amounted to 100%. The half-maximal inhibitory concentration (IC50) in test [2] is 8.26 µM.

On to `CCC(=C(c1ccc(OC)cc1)c1ccc(OC)cc1)c1cn(CC(O)CN2CCN(C)CC2)c2ccccc12` (stereo not drawn), for which the inhibition in test [1] (at 50 µM) is 93.2%. Further, the IC50 in test [2] is 33.9 µM.

For the compound `Cc1cc(/C=N/n2cnnc2)c(C)n1-c1ccc(OCc2ccc(Cl)cc2Cl)cc1`, the inhibition in test [1] (at 25 µM) amounted to 25.7%. In test [2], the IC50 was > 100 µM (inactive).

For `Cc1ccc2nc3c(nc2c1)-c1ccccc1C3=O`, the inhibition in test [1] (at 50 µM) came out at 17%. For the same compound, in test [2], the IC50 is > 100 µM (inactive).

Take `Oc1c(I)cc(Cl)c2cccnc12`: in test [1] (at 50 µM), the inhibition came out at 98%. Besides, the concentration for half-maximal inhibition (IC50) in test [2] is 16.7 µM.

Consider `Cc1ccc(-n2c(C)cc(C(=O)COC(=O)c3ccc[nH]c3=O)c2C)cc1C`, for which the inhibition in test [1] (at 50 µM) amounted to 99.6%. Besides, in test [2], the 50% inhibitory concentration (IC50) is 10.8 µM.

As for `COC(=O)Cc1cc(=O)n(-c2nc3ccccc3[nH]2)[nH]1`, the inhibition in test [1] (at 50 µM) was determined as 64.1%. Besides, in test [2], the concentration for half-maximal inhibition (IC50) was 45.1 µM.

`CCCCCCCCCCCCCCCC[n+]1ccc(C(N)=O)cc1`: the inhibition in test [1] (at 25 µM) was determined as 100%. The IC50 in test [2] was 0.545 µM.

As for `Oc1c(N=Nc2ccccn2)ccc2ccccc12`, in test [1] (at 25 µM), the inhibition is 98.2%. In addition, the IC50 in test [2] was 11.5 µM.

Turning to `CC(C)C(=O)NC(c1ccccc1)c1cc([N+](=O)[O-])c2cccnc2c1O` (stereo not drawn), in test [1] (at 50 µM), the inhibition was determined as 93.4%. The IC50 in test [2] was 29.6 µM.

As to `CC(C)CC(=O)/C(=C\c1ccc(Cl)cc1Cl)n1cncn1`, the inhibition in test [1] (at 50 µM) was 100%. The IC50 in test [2] was 11.7 µM.

As to `CCc1ccc2c(c1)C1(NN=C(c3ccc(C)cc3)S1)C(=O)N2` (stereo not drawn), the inhibition in test [1] (at 50 µM) worked out at 98%. For the same compound, the IC50 in test [2] is 21.3 µM.

In the case of `O=C(N/N=C/c1cc2c3c(c1O)CCCN3CCC2)c1ccccc1O`, in test [1] (at 50 µM), the inhibition was 49.5%. In addition, in test [2], the IC50 was 48.1 µM.

On to `Cn1c(=O)c(C(=O)Nc2ncccn2)c(O)c2ccccc21`, for which, in test [1] (at 50 µM), the inhibition amounted to 56.6%. The concentration for half-maximal inhibition (IC50) in test [2] was 49.9 µM.

Take `COc1cccc2sc(Nc3nc(-c4ccccn4)cs3)nc12`: the inhibition in test [1] (at 50 µM) was 77.8%. For the same compound, the half-maximal inhibitory concentration (IC50) in test [2] is 20 µM.

In the case of `COc1ccc2cc(C(=O)O)ccc2c1`, the inhibition in test [1] (at 50 µM) turned out to be 72.1%. Further, the IC50 in test [2] is 20.5 µM.

On to `O=C(c1ccccc1)c1ccc2nc(N3CCCCC3)c3nncn3c2c1`, for which the inhibition in test [1] (at 0.195 µM) was 14.9%. Besides, in test [2], the IC50 is > 100 µM (inactive).

Take `COc1cc(OC)nc(NC(=O)CS(=O)(=O)c2ccccc2)n1`: the inhibition in test [1] (at 50 µM) was 77.3%. The half-inhibitory concentration (IC50) in test [2] was 17.4 µM.

In the case of `C=CCN1C(C(=O)c2ccccc2)=C(OC(=O)COc2ccccc2)c2ccccc2S1(=O)=O`, the inhibition in test [1] (at 50 µM) came out at 65.8%. In test [2], the IC50 was 43.1 µM.
